Results from US9925280B2, “Hyperpolarized amino acids” (BRACCO IMAGING S.P.A., priority 2012, dated 2018).

Assay: Solubility in anhydrous solvents
Format: physicochemical
Method: The above components of the DNP mixture can be admixed according to any suitable technique and methodology known in the art. In a preferred embodiment, the amino acid and the hydroxide are first admixed as dry powders. The powder mixture is then dissolved in the anhydrous solvent, which preferably already contains the polarizing agent dissolved therein. […] Optionally, the DNP mixture may further contain a paramagnetic metal ion, for further increasing the polarisation levels in the compound to be polarised (see e.g. WO 2007/064226 herein incorporated by reference); preferably, the paramagnetic metal ion is in the form of a complex with a chelating agent, such as, for instance DOTA, DO3A, BOPTA or DTPA; preferably the paramagnetic metal ion is a Gadolinium (Gd^3+).

solubility in anhydrous solvents: very poor solubility
SMILES: NC(=O)CC[C@H](N)C(=O)O [glutamine]
